Data: patent US5932709A (University of Michigan, priority 1997, dated 1999)
Values after ≈ are worked out from the molar mass of the structure shown.

What was measured:
[1] = test system: HT-29 human colon adenocarcinoma cells; test: MTT growth inhibition, HT-29; format: cell-based; settings: 144 h, HT-29, MTT, 6 days, read-out: Growth Inhibitory Activity IC50
Method: (§1) Camptothecin was used as a control to test the anti-cancer efficacy of the novel camptothecin analogs of the present invention.
(§2) Murine B16 melanoma cell line was grown in RPMI 1640 medium supplemented with 10% heat-inactivated fetal bovine serum, 2 mM L-glutamine, 50 units/mL penicillin, 50 μg/mL streptomycin, 25 μg/mL gentamicin, 0.75% sodium bicarbonate 10 mM HEPES buffer (pH 7.4), and 0.06 mg/mL AntiPPLO. Murine P388 leukemic cell line and human HT-29 colon adenocarcinoma line were maintained in RPMI 1640 medium supplemented with 10% heat-inactivated fetal bovine serum. […] MCF-7M human breast adenocarcinoma was maintained in IMEM supplemented with 5% non heat-inactivated fetal bovine serum and 1 nM insulin.
(§3) [See "Rapid Colorimetric Assay For Cellular Growth And Survival: Application To Proliferation And Cytotoxicity Assays," J. Immun. Meth. 65:55 (1983)]. The assay utilizes a tetrazolium salt to quantitatively measure mammalian cell survival and proliferation by colorimetric methods. In particular, MTT, a pale yellow compound with minimal absorbance, is incubated with cancerous cells in addition to (or in the absence of) a particular camptothecin analog. Living cells with active mitochondrial enzymes metabolize the MTT into a dark blue/purple formazan product with high absorbance. The exact procedure used to test the camptothecin analogs of the present invention is described below.
(§4) Exponentially growing cells (1-2×10^3 cells, unless specified otherwise) in 0.1 mL medium were seeded on day 0 in a 96-well microtiter plate. On day 1, 0.1 mL aliquots of medium containing graded concentrations of test analogs were added to the cell plates. After incubation at 37° C. in a humidified incubator for 3 days (P388, P388/CPT, B16) or 6 days (HT-29, MCF-7M), the plates were centrifuged briefly and 100 μL of the growth medium was removed. Cell cultures were incubated with 50 μL of 3-(4,5-dimethylthiazol-2-yl)-2,5-diphenyl-tetrazolium bromide [MTT, 1 mg/mL in Dulbecco's phosphate buffered saline (PBS)] for 4 hr at 37° C. The resulting purple formazan precipitate was solubilized with 200 μL of 0.04 N HCl in isopropyl alcohol. Absorbance was monitored in a BioRad Model 3550 Microplate Reader at a test wavelength of 570 nm and a reference wavelength of 630 nm. The absorbance is transferred to a PC 486 computer. The IC50 values were determined by a computer program (EZ-ED50) that fits all of the data to the following four-parameter logistic equation:
(§5) Y=(Amax -Amin)/(1+[X/IC^50 ])^n +Amin
(§6) where Amax is the absorbance of control cells, Amin is the absorbance of cells in the presence of highest agent concentration, IC^50 is the concentration of agent that inhibits the cell growth by 50% of control cells (based on the absorbance) and n is the slope of the curve.

[2] = test system: MCF-7 human breast tumor cells; test: MTT growth inhibition, MCF-7; format: cell-based; settings: MCF7, 144 h, MCF-7, MTT, 6 days, read-out: Growth Inhibitory Activity IC50
Method: as §1, §2, §3, §4, §5, §6

[3] = test system: murine B16 melanoma; test: Murine B16 melanoma model in vivo; parameters: species or system mouse (B6D2F1); settings: for Survivors: 60-day
Method: 1) Murine B16 Melanoma Model
For the B16 melanoma model, the following procedure was used. B6D2F1 mice receive i.p. inocula of B16 murine melanoma brei prepared from B16 tumors growing s.c. in mice (day 0). […] If dosing information for agents is not available, the maximum tolerated dose (MTD) is determined in initial dose finding experiments in non-tumored mice.
The mean survival times of all groups are calculated, and results are expressed as mean survival of treated mice/mean survival of control mice (T/C)×100%. A T/C value of 150 means that the mice in the treated group lived 50% longer than those of the control group; this is sometimes referred to as the increase in life span or ILS value.
Mice that survive for 60 days are considered long-term survivors, or cures, in the B16 model. The universally accepted cut-off for activity in this model, which has been for years by the National Cancer Institute, is T/C=125. Conventional use of B16 over the years has set the following levels of activity: T/C<125, no activity, T/C=125-150, weak activity; T/C=150-200, modest activity; T/C=200-300, high activity; T/C>300, with long term survivors; excellent, curative activity.

[4] = test system: MX-1 human breast tumor xenograft; test: in vivo
Text: For all the models, the vehicle used to deliver the analog of interest was isotonic saline.
For the MX-1 human breast tumor xenograft models, the following procedure was used. Nude mice are implanted s.c. by trocar with fragments of MX-1 mammary carcinomas harvested from s.c. growing MX-1 tumors in nude mice hosts. When tumors are approximately 5 mm×5 mm in size (usually about ten days after inoculation), the animals are pair-matched into treatment and control groups. Each group contains ten tumored mice, each of which is ear-tagged and followed individually throughout the experiment. The administration of drugs or vehicle begins the day the animals are pair-matched (day 1). The doses, route of drug administration and schedule are selected as appropriate for the study in question. If the MTD dose of an agent is not known, it is determined in an initial dosing experiment in non-tumored mice. In a typical experiment, drugs are given at their MTD and 1/2 MTD doses i.p. on a daily×5 schedule.
The experiment is usually terminated when control tumors reach a size of 2-3 g. Mice are weighed twice weekly, and tumor measurements are taken by calipers twice weekly, starting on day 1. These tumor measurements are converted to mg tumor weight by a well known formula, and from these calculated tumor weights the termination date can be determined. Upon termination, all mice are weighed, sacrificed, and their tumors excised. Tumors are weighed, and the mean tumor weight per group is calculated.
Some drugs cause tumor shrinkage in the MX-1 model. With these agents, the final weight of a given tumor is subtracted from its own weight at the start of the treatment on day 1. This difference divided by the initial tumor weight is the % shrinkage. A mean % tumor shrinkage can be calculated from data from the mice in a group that experienced MX-1 regressions. If the tumor completely disappears in a mouse, this is considered a complete regression or complete tumor shrinkage. If desired, mice with partial or total tumor regressions can be kept alive past the termination date to see whether they live to become long term, tumor-free survivors.
Note that in the following table the abbreviation SR refers to tumor shrinkage rate, while those entries followed by a superscripted `2` are tumor growth inhibition rates, not tumor shrinkage rates.

CC[C@@]1(O)C(=O)OCc2c1cc1n(c2=O)Cc2c-1nc1ccccc1c2CO[C@@H]1C=C[C@H](O)[C@@H](CO)O1 [HAR7, 7-[2,3-dideoxy-α-D-erythro-hex-2-enopyranosyl]-oxymethylcamptothecin]
IC50 [1]: 0.031 µg/mL (≈ 0.0612 µM)
IC50 [2]: 0.0064 µg/mL (≈ 0.0126 µM)
cures ([3]; 20 mg/kg): no cures
T/C (mean survival treated/control) ([3]; 20 mg/kg i.p. daily×5): 191%
Tox Deaths ([3]; 20 mg/kg i.p. daily×5): 0/10
ΔWeight (%) ([3]; 20 mg/kg i.p. daily×5): -0.1%
Survivors ([3]; 20 mg/kg i.p. daily×5): 0/10
T/C (mean survival treated/control) ([3]; 40 mg/kg i.p. daily×5): 205%
Tox Deaths ([3]; 40 mg/kg i.p. daily×5): 0/10
ΔWeight (%) ([3]; 40 mg/kg i.p. daily×5): -7.9%
Survivors ([3]; 40 mg/kg i.p. daily×5): 1/10
60-day survivors ([3]; dose not stated): one
mice with tumor shrinkage ([4]; 20 mg/kg): 10
SR(%) (Tumor Shrinkage Rate) ([4]; 20 mg/kg i.p. daily×5): 98%
Shrinkage (animals) ([4]; 20 mg/kg i.p. daily×5): 10/10
Tox Deaths ([4]; 20 mg/kg i.p. daily×5): 0/10
ΔWeight (%) ([4]; 20 mg/kg i.p. daily×5): -0.05%
weight loss ([4]; 20 mg/kg, in words): virtually no weight loss
SR(%) (Tumor Shrinkage Rate) ([4]; 40 mg/kg i.p. daily×5): 98%
Shrinkage (animals) ([4]; 40 mg/kg i.p. daily×5): 5/10
Tox Deaths ([4]; 40 mg/kg i.p. daily×5): 4/10
ΔWeight (%) ([4]; 40 mg/kg i.p. daily×5): -25.0%
toxicity ([4]; 40 mg/kg, in words): produced lethality
antitumor activity vs. MX-1 ([4]; in words): almost equivalent, outstanding activity

CC[C@@]1(O)C(=O)OCc2c1cc1n(c2=O)Cc2c-1nc1ccccc1c2CO[C@@H]1C=C[C@H](O[C@H]2O[C@H](COC(C)=O)[C@@H](OC(C)=O)[C@H](OC(C)=O)[C@H]2OC(C)=O)[C@@H](COC(C)=O)O1 [HAR5, 7-[6-O-acetyl-4-O-(2,3,4,6-tetra-O-acetyl-α-D-glucopyranosyl)-2,3-dideoxy-α-D-erythro-hex-2-enopyranosyl]oxymethylcamptothecin]
IC50 [1]: 0.105 µg/mL (≈ 0.119 µM)
IC50 [2]: 0.01 µg/mL (≈ 0.0114 µM)
60-day survivors (cures) ([3]; 100 mg/kg): three
T/C (mean survival treated/control) ([3]; 100 mg/kg i.p. daily×5): 239%
Tox Deaths ([3]; 100 mg/kg i.p. daily×5): 0/10
ΔWeight (%) ([3]; 100 mg/kg i.p. daily×5): +9.0%
Survivors ([3]; 100 mg/kg i.p. daily×5): 3/10
60-day survivors (cures) ([3]; 200 mg/kg): three
T/C (mean survival treated/control) ([3]; 200 mg/kg i.p. daily×5): 232%
Tox Deaths ([3]; 200 mg/kg i.p. daily×5): 0/10
ΔWeight (%) ([3]; 200 mg/kg i.p. daily×5): +5.9%
Survivors ([3]; 200 mg/kg i.p. daily×5): 3/10
efficacy vs. B16 ([3]; among the four analogs, in words): highest efficacy vs. B16
Tox Deaths ([4]; 100 mg/kg i.p. daily×5): 0/10
animals with tumor growth inhibition (Shrinkage column) ([4]; 100 mg/kg i.p. daily×5): 10/10
ΔWeight (%) ([4]; 100 mg/kg i.p. daily×5): +7.4%
Tumor growth inhibition rate (footnote 2, SR column) ([4]; 100 mg/kg i.p. daily×5, 10/10 animals): 48%
mice with growth inhibition ([4]; 200 mg/kg): 7
mice with tumor shrinkage ([4]; 200 mg/kg): 3
Shrinkage (animals) ([4]; 200 mg/kg i.p. daily×5): 3/10
Tox Deaths ([4]; 200 mg/kg i.p. daily×5): 0/10
animals with tumor growth inhibition (Shrinkage column) ([4]; 200 mg/kg i.p. daily×5): 7/10
ΔWeight (%) ([4]; 200 mg/kg i.p. daily×5): +5.3%
SR(%) (Tumor Shrinkage Rate) ([4]; 200 mg/kg i.p. daily×5, 3/10 animals): 73%
Tumor growth inhibition rate (footnote 2, SR column) ([4]; 200 mg/kg i.p. daily×5, 7/10 animals): 82%
